PubChem BioAssay (NCI)
Where “and” joins values, the source holds several entries; their conditions need not be identical. Identical values can stand only once.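 Growth conditions: 96-well plates. Treatment: test compound, 48 hours, 5 concentrations. Analysis: linear interpolation between bracketing concentrations; unreached endpoints set to highest concentration. Here, GI50 denotes the concentration required for 50% inhibition of growth. TGI is the concentration that stops growth completely.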

Legend:
Test in all cases: NCI anticancer screen, dose series, 48 h
CCRF-CEM leukemia = tested on: CCRF-CEM leukemia
COLO 205 colon = tested on: COLO 205 colon
DU-145 prostate = tested on: DU-145 prostate
HCT-15 colon = tested on: HCT-15 colon
IGROV1 ovarian = tested on: IGROV1 ovarian
KM12 colon = tested on: KM12 colon
M14 melanoma = tested on: M14 melanoma
SK-OV-3 ovarian = tested on: SK-OV-3 ovarian
T-47D breast = tested on: T-47D breast
HCC-2998 colon = tested on: HCC-2998 colon

SMILES	TGI (CCRF-CEM leukemia)	TGI (COLO 205 colon)	TGI (DU-145 prostate)	TGI (HCT-15 colon)	TGI (IGROV1 ovarian)	TGI (KM12 colon)	TGI (M14 melanoma)	TGI (SK-OV-3 ovarian)	TGI (T-47D breast)	TGI (HCC-2998 colon)	GI50 (CCRF-CEM leukemia)	GI50 (COLO 205 colon)	GI50 (HCC-2998 colon)	GI50 (HCT-15 colon)	GI50 (IGROV1 ovarian)	GI50 (SK-OV-3 ovarian)
COc1cc(/C=N/NC(=O)c2c(Cl)c(Cl)c(Cl)c(Cl)c2-c2nc3ccc(C(=O)c4ccccc4)cc3[nH]2)ccc1O	81.6 µM	58.1 µM	> 100 µM	> 100 µM	> 100 µM	> 100 µM	> 100 µM	> 100 µM	> 100 µM	–	–	–	–	–	–	–
O=C(/C=C/c1ccc([N+](=O)[O-])cc1)N1CCN(CCOC(c2ccc(F)cc2)c2ccc(F)cc2)CC1	> 100 µM	27.3 µM	> 100 µM	> 100 µM	> 100 µM	> 100 µM	> 100 µM	> 100 µM	> 100 µM	> 100 µM	–	–	–	–	–	–
COc1cccc([C@@H]2C/C(=N\NC(=O)C(=O)N[C@@H](C)c3ccccc3)c3ccccc3N2)c1	> 100 µM	> 100 µM	> 100 µM	> 100 µM	–	> 100 µM	> 100 µM	> 100 µM	> 100 µM	> 100 µM	–	–	–	–	–	–
c1ccc(/C(=N\Nc2nc3ccccc3[nH]2)c2ccccn2)cc1	0.891 µM	3.31 µM	> 100 µM	5.83 µM	1.31 µM	17 µM	1.89 µM	2.02 µM	27 µM	4.1 µM	–	–	–	–	–	–
c1ccc(CSC(SCc2ccccc2)c2cccc3ccccc23)cc1	> 10 µM	> 10 µM	> 10 µM	> 10 µM	> 10 µM	> 10 µM	> 10 µM	> 10 µM	> 10 µM	> 10 µM	–	–	–	–	–	–
C[n+]1c2ccccc2c(N=[N+]=[N-])c2ccccc21	> 10 µM	> 10 µM	> 10 µM	> 10 µM	> 10 µM	> 10 µM	> 10 µM	> 10 µM	> 10 µM	> 10 µM	–	–	–	–	–	–
O=C1OC(c2ccc(O)cc2)(c2ccc(O)cc2)c2ccc(Cl)c3cccc1c23 (tested in a mixture with another compound)	36.2 µM	9.06 µM	> 75 µM	22.8 µM	33.2 µM	17.9 µM	19.8 µM	> 75 µM	–	–	–	–	–	–	–	–
CC[C@@]1(O)CC(OC2CC(N3CCOCC3)C(O)C(C)O2)c2c(O)c3c(c(O)c2[C@H]1O)C(=O)c1cccc(O)c1C3=O (some centres undefined)	–	0.897 µM and 2.14 µM	0.852 µM	1.44 µM and 3.18 µM	2.9 µM and 5.99 µM	3.59 µM and 1.68 µM	1.51 µM	1.07 µM and 1.67 µM	3.35 µM	0.904 µM and 0.916 µM	0.000479 µM and < 0.0102 µM	0.0433 µM	0.13 µM	0.0358 µM	0.235 µM	0.0963 µM
Cc1cc(C)c2c(=O)n(CC(O)CN(Cc3ccccc3)CC(O)Cn3sc4nc(C)cc(C)c4c3=O)sc2n1 (centres undefined)	> 100 µM	21.3 µM	31.7 µM	34.4 µM	31.7 µM	31.4 µM	32.9 µM	73.6 µM	41 µM	35.7 µM	–	–	–	–	–	–
NC1CCN(c2nc3ccccc3c3c2CCCC3)CC1	15.2 µM	3.22 µM	24.3 µM	17.7 µM	19.5 µM	15.2 µM	3.84 µM	27.1 µM	7.29 µM	3.2 µM	–	–	–	–	–	–
O=C(CSCC(=O)N/N=C\c1ccc(F)cc1F)N/N=C\c1ccc(F)cc1F	> 100 µM	> 100 µM	> 100 µM	> 100 µM	> 100 µM	> 100 µM	> 100 µM	> 100 µM	> 100 µM	> 100 µM	–	–	–	–	–	–
C=C(CN(C)C)C(=O)c1ccccc1OC	14.5 µM	11 µM	> 64 µM	33.3 µM	58.1 µM	63 µM	28.9 µM	> 66.1 µM	38.5 µM	51.1 µM	–	–	–	–	–	–
O=C(O)c1cc2ccccc2c(N=Nc2ccc(S(=O)(=O)Nc3ccccn3)cc2)c1O	> 100 µM	> 100 µM	> 100 µM	> 100 µM	> 100 µM	> 100 µM	> 100 µM	> 100 µM	> 100 µM	> 100 µM	–	–	–	–	–	–
CC1(C)CN(CC(=O)O)CC(Cc2ccc(OCC(=O)O)cc2)N(CC(=O)O)CC(C)(C)SS1 (centres undefined)	–	> 100 µM	> 100 µM	> 100 µM	> 100 µM	> 100 µM	> 100 µM	> 100 µM	–	> 100 µM	–	–	–	–	–	–
